{"source": "paper PMC6985185", "about": "(Breast cancer research and treatment, 2019)", "key": {"TamR xenograft tumors": {"test_system": "TamR xenograft tumors", "assay": "TamR Study 2: growth of tamoxifen-resistant xenograft tumors under oral SERDs"}, "uterus": {"test_system": "uterus", "assay": "Uterine wet weight in LTED tumor bearing mice", "type": "in vivo, Nu:J mice", "conditions": "ovariectomized LTED tumor bearing mice, after 4 weeks of treatment at the LTED study doses"}}}
{"smiles": "C[C@@H]1Cc2c([nH]c3ccccc23)[C@@H](c2c(F)cc(/C=C/C(=O)O)cc2F)N1CC(C)(C)F", "note": "[AZD9496]", "values": [{"measurement": "% tumor growth inhibition of TamR tumors", "setting": "TamR xenograft tumors; AZD9496 10 mg/kg po qd, day 0 of treatment", "result": "−3", "unit": "%"}, {"measurement": "% tumor growth inhibition of TamR tumors", "setting": "TamR xenograft tumors; AZD9496 10 mg/kg po qd, day 2 of treatment", "result": 13, "unit": "%"}, {"measurement": "% tumor growth inhibition of TamR tumors", "setting": "TamR xenograft tumors; AZD9496 10 mg/kg po qd, day 4 of treatment", "result": 18, "unit": "%"}, {"measurement": "% tumor growth inhibition of TamR tumors", "setting": "TamR xenograft tumors; AZD9496 10 mg/kg po qd, day 7 of treatment", "result": 27, "unit": "%"}, {"measurement": "% tumor growth inhibition of TamR tumors", "setting": "TamR xenograft tumors; AZD9496 10 mg/kg po qd, day 9 of treatment", "result": 24, "unit": "%"}, {"measurement": "% tumor growth inhibition of TamR tumors", "setting": "TamR xenograft tumors; AZD9496 10 mg/kg po qd, day 11 of treatment", "result": 30, "unit": "%"}, {"measurement": "% tumor growth inhibition of TamR tumors", "setting": "TamR xenograft tumors; AZD9496 10 mg/kg po qd, day 14 of treatment", "result": 31, "unit": "%"}, {"measurement": "% tumor growth inhibition of TamR tumors", "setting": "TamR xenograft tumors; AZD9496 10 mg/kg po qd, day 16 of treatment", "result": 32, "unit": "%"}, {"measurement": "% tumor growth inhibition of TamR tumors", "setting": "TamR xenograft tumors; AZD9496 10 mg/kg po qd, day 18 of treatment", "result": 36, "unit": "%"}, {"measurement": "% tumor growth inhibition of TamR tumors", "setting": "TamR xenograft tumors; AZD9496 10 mg/kg po qd, day 21 of treatment", "result": 43, "unit": "%"}, {"measurement": "% tumor growth inhibition of TamR tumors", "setting": "TamR xenograft tumors; AZD9496 10 mg/kg po qd, day 23 of treatment", "result": 47, "unit": "%"}, {"measurement": "% tumor growth inhibition of TamR tumors", "setting": "TamR xenograft tumors; AZD9496 10 mg/kg po qd, day 25 of treatment", "result": 46, "unit": "%"}, {"measurement": "% tumor growth inhibition of TamR tumors", "setting": "TamR xenograft tumors; AZD9496 10 mg/kg po qd, day 28 of treatment", "result": 43, "unit": "%"}, {"measurement": "Uterine wet weight (measure of uterine stimulation)", "setting": "uterus", "result": "significantly increased uterine weight"}]}
{"smiles": "CC/C(=C(/c1ccc(/C=C/C(=O)O)cc1)c1ccc2[nH]ncc2c1)c1ccc(F)cc1Cl", "note": "[GDC0810]", "values": [{"measurement": "% tumor growth inhibition of TamR tumors", "setting": "TamR xenograft tumors; GDC0810 25 mg/kg po qd, day 0 of treatment", "result": "−5", "unit": "%"}, {"measurement": "% tumor growth inhibition of TamR tumors", "setting": "TamR xenograft tumors; GDC0810 25 mg/kg po qd, day 2 of treatment", "result": 11, "unit": "%"}, {"measurement": "% tumor growth inhibition of TamR tumors", "setting": "TamR xenograft tumors; GDC0810 25 mg/kg po qd, day 4 of treatment", "result": 22, "unit": "%"}, {"measurement": "% tumor growth inhibition of TamR tumors", "setting": "TamR xenograft tumors; GDC0810 25 mg/kg po qd, day 7 of treatment", "result": 28, "unit": "%"}, {"measurement": "% tumor growth inhibition of TamR tumors", "setting": "TamR xenograft tumors; GDC0810 25 mg/kg po qd, day 9 of treatment", "result": 27, "unit": "%"}, {"measurement": "% tumor growth inhibition of TamR tumors", "setting": "TamR xenograft tumors; GDC0810 25 mg/kg po qd, day 11 of treatment", "result": 35, "unit": "%"}, {"measurement": "% tumor growth inhibition of TamR tumors", "setting": "TamR xenograft tumors; GDC0810 25 mg/kg po qd, day 14 of treatment", "result": 32, "unit": "%"}, {"measurement": "% tumor growth inhibition of TamR tumors", "setting": "TamR xenograft tumors; GDC0810 25 mg/kg po qd, day 16 of treatment", "result": 42, "unit": "%"}, {"measurement": "% tumor growth inhibition of TamR tumors", "setting": "TamR xenograft tumors; GDC0810 25 mg/kg po qd, day 18 of treatment", "result": 51, "unit": "%"}, {"measurement": "% tumor growth inhibition of TamR tumors", "setting": "TamR xenograft tumors; GDC0810 25 mg/kg po qd, day 21 of treatment", "result": 49, "unit": "%"}, {"measurement": "% tumor growth inhibition of TamR tumors", "setting": "TamR xenograft tumors; GDC0810 25 mg/kg po qd, day 23 of treatment", "result": 53, "unit": "%"}, {"measurement": "% tumor growth inhibition of TamR tumors", "setting": "TamR xenograft tumors; GDC0810 25 mg/kg po qd, day 25 of treatment", "result": 53, "unit": "%"}, {"measurement": "% tumor growth inhibition of TamR tumors", "setting": "TamR xenograft tumors; GDC0810 25 mg/kg po qd, day 28 of treatment", "result": 52, "unit": "%"}, {"measurement": "Uterine wet weight (measure of uterine stimulation)", "setting": "uterus", "result": "significantly increased uterine weight"}]}
{"smiles": "N#Cc1ccc(C(c2ccc(C#N)cc2)n2cncn2)cc1", "note": "[Letrozole, letrozole]", "values": [{"measurement": "Uterine wet weight (measure of uterine stimulation)", "setting": "uterus", "result": "no response of uterine weight"}]}
